Laboratory results as given in patent publication US11058688B2, “Imidazopiperazine inhibitors of transcription activating proteins” (Board of Regents, The University of Texas System, priority 2018, dated 2021).

How the values were obtained:
[1] = target: GST-CBP(1081-1197) bromodomain (Homo sapiens (Human), UniProt Q92793); assay: CBP AlphaScreen Assay; conditions: binding to biotin-H4(1-21) Ac-K5/8/12/16 peptide
Summary of the method: (§1)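 IC50 values derived by variable-slope dose-response fit between negative and DMSO control signals. AlphaScreen signal reports bromodomain association with an H4(1-21) peptide acetylated at K5, K8, K12 and K16.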

BRD4(49-170) bromodomain = BRD4(49-170) bromodomain (Homo sapiens (Human), UniProt O60885); assay: BRD4 AlphaScreen Assay; conditions: binding to biotin-H4(1-21) Ac-K5/8/12/16 peptide
Summary of the method: as §1

Chain of GST-CBP(1081-1197) bromodomain (Q92793 1081-1197): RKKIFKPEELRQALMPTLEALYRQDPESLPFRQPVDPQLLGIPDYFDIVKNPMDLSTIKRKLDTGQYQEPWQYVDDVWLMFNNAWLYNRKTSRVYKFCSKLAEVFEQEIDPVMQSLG

| IC50 [1] [nM] | IC50 (BRD4(49-170) bromodomain) [nM] | Structure (SMILES) |
| --- | --- | --- |
| 25 | 13900 | CNC(=O)N1CCn2c(C3CCC(F)(F)C3)nc(-c3cccc4nc(-c5cnn(C)c5)c(C(F)F)cc34)c2C1 (stereo not shown) [Example 61, 3-(3,3-difluorocyclopentyl)-1-(3-(difluoromethyl)-2-(1-methyl-1H-pyrazol-4-yl)quinolin-5-yl)-N-methyl-5,6-dihydroimidazo[1,5-a]pyrazine-7(8H)-carboxamide] |
| 5 | 13500 | CNC(=O)N1CCn2c(C3CC3)nc(-c3cccc4nc(-c5cnn(C)c5)c(C(F)(F)F)cc34)c2C1 [Example 62, 3-cyclopropyl-N-methyl-1-(2-(1-methyl-1H-pyrazol-4-yl)-3-(trifluoromethyl)quinolin-5-yl)-5,6-dihydroimidazo[1,5-a]pyrazine-7(8H)-carboxamide] |
| 14 | 23600 | CNC(=O)N1CCn2c(C3CCOCC3)nc(-c3cccc4cc(N5CCOCC5)ncc34)c2C1 [Example 63, N-methyl-1-(3-morpholinoisoquinolin-8-yl)-3-(tetrahydro-2H-pyran-4-yl)-5,6-dihydroimidazo[1,5-a]pyrazine-7(8H)-carboxamide] |
| 4 | 22800 | CNC(=O)N1CCn2c(C3CCOCC3)nc(-c3cccc4nc(-c5cnn(C)c5)c(C#N)cc34)c2C1 [Example 64, 1-(3-cyano-2-(1-methyl-1H-pyrazol-4-yl)quinolin-5-yl)-N-methyl-3-(tetrahydro-2H-pyran-4-yl)-5,6-dihydroimidazo[1,5-a]pyrazine-7(8H)-carboxamide] |
| 4 | 13700 | CNC(=O)N1CCn2c(C3CCOCC3)nc(-c3cccc4nc(-c5cnn(C)c5)c(C(F)(F)F)cc34)c2C1 [Example 65, N-methyl-1-(2-(1-methyl-1H-pyrazol-4-yl)-3-(trifluoromethyl)quinolin-5-yl)-3-(tetrahydro-2H-pyran-4-yl)-5,6-dihydroimidazo[1,5-a]pyrazine-7(8H)-carboxamide] |
| 36 | > 25000 | CNC(=O)N1CCn2c(C3CC(F)(F)C3)nc(-c3cccc4nc(-c5cnn(C)c5)c(C#N)cc34)c2C1 [Example 67, 1-(3-cyano-2-(1-methyl-1H-pyrazol-4-yl)quinolin-5-yl)-3-(3,3-difluorocyclobutyl)-N-methyl-5,6-dihydroimidazo[1,5-a]pyrazine-7(8H)-carboxamide] |
| 16 | > 25000 | CNC(=O)N1CCn2c(C3CCOCC3)nc(-c3cccc4cc(C5CCOCC5)ncc34)c2C1 [Example 68, N-methyl-3-(tetrahydro-2H-pyran-4-yl)-1-(3-(tetrahydro-2H-pyran-4-yl)isoquinolin-8-yl)-5,6-dihydroimidazo[1,5-a]pyrazine-7(8H)-carboxamide] |
| 17 | 10100 | CNC(=O)N1CCn2c(C3CC3)nc(-c3cccc4cc(-c5cn(C)nc5C)ncc34)c2C1 [Example 69, 3-cyclopropyl-1-(3-(1,3-dimethyl-1H-pyrazol-4-yl)isoquinolin-8-yl)-N-methyl-5,6-dihydroimidazo[1,5-a]pyrazine-7(8H)-carboxamide] |
| 12 | 12300 | CNC(=O)N1CCn2c(C3CCOCC3)nc(-c3cccc4cc(-c5cn(C)nc5C)ncc34)c2C1 [Example 70, 1-(3-(1,3-dimethyl-1H-pyrazol-4-yl)isoquinolin-8-yl)-N-methyl-3-(tetrahydro-2H-pyran-4-yl)-5,6-dihydroimidazo[1,5-a]pyrazine-7(8H)-carboxamide] |
| 38 | 13400 | CNC(=O)N1CCn2c(C3CC(F)(F)C3)nc(-c3cccc4cc(-c5cn(C)nc5C)ncc34)c2C1 [Example 71, 3-(3,3-difluorocyclobutyl)-1-(3-(1,3-dimethyl-1H-pyrazol-4-yl)isoquinolin-8-yl)-N-methyl-5,6-dihydroimidazo[1,5-a]pyrazine-7(8H)-carboxamide] |
| 54 | 17100 | CNC(=O)N1CCn2c(C3CC3)nc(-c3c(F)ccc4cc(-c5cn(C)nc5C)ncc34)c2C1 [Example 72, 3-cyclopropyl-1-(3-(1,3-dimethyl-1H-pyrazol-4-yl)-7-fluoroisoquinolin-8-yl)-N-methyl-5,6-dihydroimidazo[1,5-a]pyrazine-7(8H)-carboxamide] |
| 40 | > 25000 | CNC(=O)N1CCn2c(C3CCOCC3)nc(-c3c(F)ccc4cc(-c5cn(C)nc5C)ncc34)c2C1 [Example 73, 1-(3-(1,3-dimethyl-1H-pyrazol-4-yl)-7-fluoroisoquinolin-8-yl)-N-methyl-3-(tetrahydro-2H-pyran-4-yl)-5,6-dihydroimidazo[1,5-a]pyrazine-7(8H)-carboxamide] |
| 4 | > 25000 | CNC(=O)N1CCn2c(C3CCC(F)(F)CC3)nc(-c3cccc4cc(N5CCOCC5)ncc34)c2C1 [Example 74, 3-(4,4-difluorocyclohexyl)-N-methyl-1(3-morpholinoisoquinolin-8-yl)-5,6-dihydroimidazo[1,5-a]pyrazine-7(8H)-carboxamide] |
| 22 | > 25000 | CNC(=O)N1CCn2c(C3CC3)nc(-c3c(F)ccc4cc(C5CCOCC5)ncc34)c2C1 [Example 75, 3-cyclopropyl-1-(7-fluoro-3-(tetrahydro-2H-pyran-4-yl)isoquinolin-8-yl)-N-methyl-5,6-dihydroimidazo[1,5-a]pyrazine-7(8H)-carboxamide] |
| 3 | 11900 | CNC(=O)N1CCn2c(C3CCC(F)(F)CC3)nc(-c3cccc4cc(-c5cn(C)nc5C)ncc34)c2C1 [Example 76, 3-(4,4-difluorocyclohexyl)-1-(3-(1,3-dimethyl-1H-pyrazol-4-yl)isoquinolin-8-yl)-N-methyl-5,6-dihydroimidazo[1,5-a]pyrazine-7(8H)-carboxamide] |
| 45 | > 25000 | CNC(=O)N1CCn2c(C3CC(F)(F)C3)nc(-c3c(F)ccc4cc(-c5cn(C)nc5C)ncc34)c2C1 [Example 77, 3-(3,3-difluorocyclobutyl)-1-(3-(1,3-dimethyl-1H-pyrazol-4-yl)-7-fluoroisoquinolin-8-yl)-N-methyl-5,6-dihydroimidazo[1,5-a]pyrazine-7(8H)-carboxamide] |
| 1 | 13500 | CNC(=O)N1CCn2c(C3CCC(F)(F)CC3)nc(-c3cccc4nc(-c5cnn(C)c5)c(C(F)(F)F)cc34)c2C1 [Example 78, 3-(4,4-difluorocyclohexyl)-N-methyl-1-(2-(1-methyl-1H-pyrazol-4-yl)-3-(trifluoromethyl)quinolin-5-yl)-5,6-dihydroimidazo[1,5-a]pyrazine-7(8H)-carboxamide] |
| 6 | 14800 | CNC(=O)N1CCn2c(C3CC(F)(F)C3)nc(-c3cccc4cc(-c5ccn(C)n5)ncc34)c2C1 [Example 79, 3-(3,3-difluorocyclobutyl)-N-methyl-1-(3-(1-methyl-1H-pyrazol-3-yl)isoquinolin-8-yl)-5,6-dihydroimidazo[1,5-a]pyrazine-7(8H)-carboxamide] |
| 2 | 11900 | CNC(=O)N1CCn2c(C3CCC(F)(F)CC3)nc(-c3cccc4cc(-c5ccn(C)n5)ncc34)c2C1 [Example 80, 3-(4,4-difluorocyclohexyl)-N-methyl-1-(3-(1-methyl-1H-pyrazol-3-yl)isoquinolin-8-yl)-5,6-dihydroimidazo[1,5-a]pyrazine-7(8H)-carboxamide] |
| 11 | 10500 | CNC(=O)N1CCn2c(C3CCC(F)(F)CC3)nc(-c3c(F)ccc4cc(-c5cn(C)nc5C)ncc34)c2C1 [Example 81, 3-(4,4-difluorocyclohexyl)-1-(3-(1,3-dimethyl-1H-pyrazol-4-yl)-7-fluoroisoquinolin-8-yl)-N-methyl-5,6-dihydroimidazo[1,5-a]pyrazine-7(8H)-carboxamide] |
| 3 | 17900 | CNC(=O)N1CCn2c(C3CCC(F)(F)CC3)nc(-c3cccc4nc(-c5cnn(C)c5)c(C#N)cc34)c2C1 [Example 82, 1-(3-cyano-2-(1-methyl-1H-pyrazol-4-yl)quinolin-5-yl)-3-(4,4-difluorocyclohexyl)-N-methyl-5,6-dihydroimidazo[1,5-a]pyrazine-7(8H)-carboxamide] |
| 16 | 19400 | CNC(=O)N1CCn2c(C3CCOCC3)nc(-c3c(F)ccc4cc(C5CCOCC5)ncc34)c2C1 [Example 83, 1-(7-fluoro-3-(tetrahydro-2H-pyran-4-yl)isoquinolin-8-yl)-N-methyl-3-(tetrahydro-2H-pyran-4-yl)-5,6-dihydroimidazo[1,5-a]pyrazine-7(8H)-carboxamide] |
| 4 | 12100 | CNC(=O)N1CCn2c(C3CCC(F)(F)CC3)nc(-c3cccc4cc(C5CCOCC5)ncc34)c2C1 [Example 84, 3-(4,4-difluorocyclohexyl)-N-methyl-1-(3-(tetrahydro-2H-pyran-4-yl)isoquinolin-8-yl)-5,6-dihydroimidazo[1,5-a]pyrazine-7(8H)-carboxamide] |
| 15 | 18100 | CNC(=O)N1CCn2c(C3CC(F)(F)C3)nc(-c3cccc4cc(C5CCOCC5)ncc34)c2C1 [Example 85, 3-(3,3-difluorocyclobutyl)-N-methyl-1-(3-(tetrahydro-2H-pyran-4-yl)isoquinolin-8-yl)-5,6-dihydroimidazo[1,5-a]pyrazine-7(8H)-carboxamide] |
| 2 | 6840 | CNC(=O)N1CCn2c(C3CCOCC3)nc(-c3c(F)ccc4cc(-c5cnc(C)s5)ncc34)c2C1 [Example 89, 1-(7-fluoro-3-(2-methylthiazol-5-yl)isoquinolin-8-yl)-N-methyl-3-(tetrahydro-2H-pyran-4-yl)-5,6-dihydroimidazo[1,5-a]pyrazine-7(8H)-carboxamide] |
| 4 | 10200 | CNC(=O)N1CCn2c(C3CCC(F)(F)CC3)nc(-c3c(F)ccc4cc(C5CCOCC5)ncc34)c2C1 [Example 90, 3-(4,4-difluorocyclohexyl)-1-(7-fluoro-3-(tetrahydro-2H-pyran-4-yl)isoquinolin-8-yl)-N-methyl-5,6-dihydroimidazo[1,5-a]pyrazine-7(8H)-carboxamide] |
